# Measurements reported in US20260216053A1, “COSMETIC COMPOSITION CONTAINING HOUTTUYNIA CORDATA FERMENTATION EXTRACT” (DAEBONG LS CO., LTD., priority 2022, published 2026).
# Legend:
# Format in all cases: cell-based
# HaCaT cells = test: Evaluation of cytotoxicity, EZ-Cytox assay; conditions: for HaCaT cell growth rate: versus untreated group 100%
# Protocol: (§1) HaCaT cells, which are skin keratinocytes, were provided by Cell Line Service GmbH (Germany). The cells were cultured in 5% CO2 incubator at 37° C. using Dulbecco's modified Eagle's medium (DMEM) containing 1% penicillin-streptomycin and 10% fetal bovine serum (FBS). Subculturing was performed with 2-3 day intervals.
# The EZ-cytox assay is a representative method for measuring cell viability that utilizes the principle that a water-soluble tetrazolium salt (WST) reacts with the dehydrogenase of living cells to produce an orange-colored, water-soluble formazan.
# To examine cytotoxicity, HaCaT cells were seeded at 1.0×10^4 cells/well in a 96-well plate using DMEM medium containing 10% FBS, and cultured under the condition of 37° C. and 5% CO2 for 24 hours. After exchanging the medium with serum-free DMEM, the cultured cells were treated with a sample to be evaluated. After that, EZ-cytox was added to each well and reacted under the condition of 37° C. and 5% CO2 for 30 minutes, and then absorbance was measured at 450 nm using a microplate reader. The average absorbance value for each sample group was calculated, and this value was compared with the absorbance value of the control group to evaluate cell viability.
# [1] = system: filaggrin production in HaCaT cells; test: Production of moisturizing factor filaggrin (FLG), ELISA; conditions: 24 hours, cell lysate, FIG. 3 and FIG. 4
# Protocol: as §1
# HaCaT cells were seeded at 1.0×10^5 cells/well in a 24-well plate and cultured for 24 hours under the condition of 37° C. and 5% CO2. After the cultured cell medium was replaced with serum-free DMEM, a sample was treated at different concentrations and the cells were cultured for 24 hours. Afterwards, the cells of each test group were lysed and proteins were collected. Then, the amount of filaggrin produced in the culture medium extract was measured. The measurement of filaggrin production was performed using the Filaggrin ELISA kit (Cusabio Biotechnology Co., Ltd) according to the method provided by the manufacturer. The result of measuring the amount of filaggrin produced depending on the quercetin treatment is shown in FIG. 3, and the result of measuring the amount of filaggrin produced depending on the treatment with the extracts of the example and comparative example is shown in FIG. 4.
# [2] = system: hyaluronic acid production in HaCaT cells; test: Production of moisturizing factor hyaluronic acid (HA), ELISA; conditions: 24 hours, supernatant, FIG. 1 and FIG. 2
# Protocol: HaCaT cells, which are skin keratinocytes, were provided by Cell Line Service GmbH (Germany). The cells were cultured in 5% CO2 incubator at 37° C. using Dulbecco's modified Eagle's medium (DMEM) containing 1% penicillin-streptomycin and 10% fetal bovine serum (FBS). Subculturing was performed with 2-3 day intervals. HaCaT cells were seeded at 1.0×10^5 cells/well in a 24-well plate and cultured for 24 hours under the condition of 37° C. and 5% CO2. After the cultured cell medium was replaced with serum-free DMEM, a sample was treated at different concentrations and the cells were cultured for 24 hours. Afterwards, the supernatant from each test group was collected and the amount of hyaluronic acid (HA) produced in the medium was measured. A control group was treated with N-acetylglucosamine at a concentration of 10 mM. The measurement of hyaluronic acid production was performed using the Hyaluronan Quantikine ELISA kit (R&D Systems) according to the method provided by the manufacturer.
smiles,measurement,setting,value
"O=c1c(O)c(-c2ccc(O)c(O)c2)oc2cc(O)cc(O)c12 [Quercetin, quercetin]",HaCaT cell growth rate,HaCaT cells; 25 μM,104.3 ± 1.3%
same,HaCaT cell growth rate,HaCaT cells; 50 μM,105.9 ± 1.0%
same,HaCaT cell growth rate,HaCaT cells; 100 μM,109.4 ± 2.1%
same,HaCaT cell growth rate,HaCaT cells; 200 μM,92.8 ± 2.8%
same,Cytotoxicity for the skin keratinocytes,"HaCaT cells; HaCaT cells, tested concentrations of Table 2","none of the example, comparative example or quercetin exhibited cytotoxicity"
same,Production of filaggrin,[1],promoted the production of the moisturizing factor filaggrin
same,Production of hyaluronic acid,[2],promoted the production of the moisturizing factor hyaluronic acid
